# Assay results as given in patent publication US7612107B2, “Treatment and inhibition of disease conditions using flexible heteroarotinoids” (The Board of Regents of the University of Oklahoma, priority 2005, dated 2009).
# Like-named read-outs stand apart in the source and are kept apart here.
# Key:
# [1] = test system: Thrombospondin 4 (TSP4); assay: Real time rt-PCR and Western blot validation, thrombospondin 4; format: cell-based; details: OVCAR-3 1 μM (rt-PCR); A2780 10 μM (Western)
# [2] = test system: Raldh2-/- embryos; details: for No. of −/− rescued / No. of −/− unrescued: E10.25; for Teratogenesis: mouse, in vivo, po
# Experimental: Briefly, retinoids were dissolved in corn oil and administered orally to timed-pregnant Raldh2_/_mice at 12-h intervals on E7.25, E7.75, and E8.25. Dosages varied from 0.025 to 25 mg/kg. At E10.25, embryos were analyzed morphologically to determine whether Raldh2_/_embryos were rescued or whether wild-type embryos had suffered teratogenesis. Detection of embryonic RA was performed in situ in embryos carrying the RARE-lacZ RA-reporter gene by staining for beta-galactosidase activity for 10 h (45).
# A mouse model that lacks retinaldehyde dehydrogenase (Raldh2) due to null mutations was used to test the ability of Flex-Hets to substitute for retinoic acid (RA) and induce birth defects. […] We examined the relative ability of all-trans-RA, 9-cis-RA, receptor-specific synthetic retinoids and retinoic acid receptor independent Flex-Hets to rescue the Raldh2_/_embryonic lethal phenotype.
# [3] = test system: EAhy.926 endothelial cells; assay: Growth/viability of endothelial cells versus ovarian cancer cell lines; format: cell-based; details: 24 hours
# Experimental: (§1) The graph on the left provides quantification of the endothelial branches for each treatment dose.
# (§2) The increased thickness of the vessels at 1 μM and the increasing proportions of solitary clumps of cells at 5 and 10 μM indicate that SHetA2 is inhibiting endothelial cell migration. To determine if this anti-angiogenic activity was due to growth inhibition or cytotoxicity. The viability of the endothelial cells treated with SHetA2 for 24 hours was evaluated. […] This confirms the therapeutic ratio observed in previous studies.
# [4] = test system: NCI human tumor cell line panel; assay: SHetA2 cytotoxicity in NCI human tumor cell line panel; format: cell-based
# Experimental: The SHetA2 compound was evaluated in the National Cancer Institute (NCI) human tumor cell line panel by the Developmental Therapeutics Program (DTP). The human tumor cell lines were grown in RPMI 1640 medium containing 5% fetal bovine serum and 2 mM L-glutamine. Cells were inoculated into 96 well microtiter plates at densities ranging from 5,000 to 40,000 cells/well depending on the doubling time of individual cell lines and incubated for 24 h prior to addition of SHetA2. After 24 h, two plates of each cell line were fixed in situ with TCA, to represent a measurement of the cell population for each cell line at the time of drug addition (Tz). Drugs were dissolved in dimethyl sulfoxide (DMSO) and diluted in complete medium containing 50 μg/ml gentamicin, prior to addition to the culture wells. […] […] The absorbance was read on an automated plate reader at a wavelength of 515 nm. Using the seven absorbance measurements (time zero, (Tz), control growth, (C), and test growth in the presence of drug at the five concentration levels (Ti)), the GI50 was calculated from [(Ti−Tz)/(C−Tz)]×100=50. […]
# [5] = test system: EAhy.926 endothelial cells; assay: Endothelial tube branching on matrigel; format: cell-based; details: 1, 5 and 10 μM; 20 hours
# Experimental: as §1, §2
# [6] = test system: OVCAR-3 xenograft tumors; assay: OVCAR-3 xenograft tumor growth model; format: in vivo, mouse; details: 10 mg/kg/day by gavage, 5 days per week, 4 weeks
# Experimental: Groups of 5 mice bearing OVCAR-3 xenografted tumors were gavaged daily with the indicated drugs in sesame oil (▪ closed square) or with sesame oil alone (∘ open circle). Tumor volumes were measured in 3 dimensions with calipers weekly. Each data point represents the average and standard error of the tumor volumes on the indicated treatment day relative to the tumor volume on day zero. Nu/nu mice were injected subcutaneously with one million OVCAR-3 cells and arbitrarily divided into five groups of six mice each. After three weeks of tumor growth, the animals were gavaged with sesame oil, 10 mg/kg/day 4-HPR, or the indicated Het five times per week for four weeks and the tumors were measured once per week. The tumor sizes were averaged and divided by the average size for each group on the day that treatment was initiated (day 0).
# The OVCAR-3 cultures were maintained in RPMI media supplemented with 10% fetal bovine serum. All animal experimentation described in this manuscript was conducted in accord with accepted standards of humane animal care. Twenty-five female NU/NU CD-1 female mice (Charles Rivers Laboratories) were housed in a laminar flow room under sterile conditions at 83-85° F. The mice were quarantined for one week prior to the beginning of the study and were allowed access to autoclaved food (Purina 5001 mouse/rat sterilizable diet, St. Louis, Mo.) and water ad libitum. OVCAR-3 cells in log phase growth were harvested by trypsinization, resuspended in RPMI culture medium, and centrifuged at 3,000 rpm for 10 min. The pellets were resuspended in RPMI culture medium at a concentration of 7×10^6 cells/ml before implantation into mice. Animals were injected with 3.5×10^6 cells into the right scapular region with a 24-gauge needle/1 cc tuberculin syringe. Twenty-four hours after tumor implantation, animals were randomized into 5 groups of 5 animals each.
# The Hets SHet50, SHetA2 and SHetA4 were synthesized and their receptor specificity determined as previously described (17,19). The 4-HPR compound was a gift from R.W. Johnson Pharmaceutical Research Institute, Raritan, N.J. All retinoids were dissolved in super refined sesame oil (Croda, Inc., Parsippany, N.J.) and stored at −80° C. Since the retinoids are light sensitive, all manipulations involving retinoids were performed under subdued lighting. […] Tumors were measured with calipers weekly, and tumor volumes were calculated using the formula: volume=length×width×height. Tumor growth was determined by the dividing the volume of the tumor at each weekly measurement by the volume on the first day of treatment. Animal weights and clinical signs of overall health status and cutaneous toxicities were recorded weekly.
smiles,measurement,setting,value
CC1(C)CC(C)(C)c2cc(NC(=S)Nc3ccc([N+](=O)[O-])cc3)ccc2S1 [SHetA2],Expression of TSP-4 at the RNA and protein levels,[1],inhibit expression
same,Rescue of Raldh2−/− embryos (in words),[2]; 2.5 mg/kg,no rescue
same,Rescue of Raldh2−/− embryos (in words),[2]; 10 or 25 mg/kg,no rescue
same,No. of −/− rescued,[2]; Dose 2.5 mg/kg oral,0
same,No. of −/− unrescued,[2]; Dose 2.5 mg/kg oral,1
same,No. of −/− rescued,[2]; Dose 10 mg/kg oral,0
same,No. of −/− unrescued,[2]; Dose 10 mg/kg oral,5
same,No. of −/− rescued,[2]; Dose 25 mg/kg oral,0
same,No. of −/− unrescued,[2]; Dose 25 mg/kg oral,1
same,Teratogenesis,[2]; 2.5 mg/kg,0
same,Teratogenesis,[2]; 10 mg/kg,0
same,Teratogenesis,[2]; 25 mg/kg,0
same,Growth inhibition of endothelial cells compared with A2780 and OVCAR-3,[3],much less growth inhibited
same,percent growth levels,"[4]; 10 and 100 μM SHetA2, majority of cell lines",negative percent growth levels
same,GI50 values,"[4]; 55 cell lines, 9 cancer types, 48 h",micromolar range
same,Inhibition of angiogenesis: endothelial tube branching,[5],dose-responsive inhibition
same,Growth of xenograft tumors versus sesame oil control,[6],significantly inhibited the growth
